Source: US20060122153A1, “Antineoplastic ether lipid compounds with modifications at the sn-2 carbon” (priority 2003, published 2006)
“And” between values parts separate entries of the source, which are not always exact repeats. Equal values may be shown once. “Also recorded” adds a separate entry of the source. Read-outs that look alike come from different tables or passages of the source.

What was measured:
[1] = test system: platelets in dog whole blood; assay: Platelet aggregation in whole blood (Chronolog whole blood aggregometer)
Method: (§5) Briefly, whole citrated blood is diluted 1:2 with sterile saline and placed in a warm chamber with a mini stir bar. An electronic probe, measuring electrical resistance, is inserted in the sample. The aggregometer is calibrated and the baseline is observed to detect any spontaneous aggregation. The test sample is added and allowed to run for at least 6 minutes. If the sample is an agonist the platelets will start to aggregate and stick to the electronic probe causing resistance across the electrodes to increase. This resistance, in ohms, is measured 6 minutes post addition of sample. The test samples are run at 25, 100, 200, 400 and 800 uM and compared to 100 uM L-ET-18-OCH3.
(§6) Collection of Blood Sample for in vitro Platelet Aggregation Testing: Venous blood is collected in 4.5 mL Vacutainer tubes containing 0.129 M sodium citrate using a 21G needle or larger. Blood is immediately mixed by gentle inversion 15-20 times and kept at room temperature. Dilution ratio is 1 to 9 (3.8% citrate solution:blood). One (2.0 mL) Vacutainer tube containing EDTA is also collected for platelet counts. Complete blood counts (CBC) are measured on the CDC Technologies Hemavet 1500 to ensure that the test subject's platelets are within normal range. Amy vials of hemolytic blood or blood containing any clots should be discarded. Platelet aggregation testing must be completed within 3 hours of blood collection. After this time the ability of platelets to aggregate decreases.
(§7) Dilutions were prepared in PBS or saline at 40× concentration. (25 uL test sample are added to 1000 uL diluted blood (1:40)).

[2] = test system: whole human blood; assay: Hemolysis assay with whole human blood
Method: Venous blood was collected in 10 mL Vacutainer tubes containing EDTA using a 21G needle or larger.
Stock solutions of 20 mM test sample in phosphate buffered saline (PBS) were prepared as follows:
Then 270 uL of whole blood was aliquotted in duplicate mini test tubes using positive displacement pipet. Next, 30 uL of each working stock solution, in duplicate, was added to the whole blood. Next, 30 uL of PBS was added for background control. The samples were capped or sealed with Parafilm and gently mixed. The blood was incubated at 37° C. in gentle rotating water bath for 30 minutes. Final concentration of test sample was 10% of working stock solution.
Total hemolysis samples of 1,% and 10% whole blood samples in deionized water were prepared as follows:
The samples were freeze thawed 3× in liquid nitrogen then wafer bath. The samples were then centrifuged 10 minutes at 1500 RPM. Next, 100 uL of supernatant was transferred to a cuvette and 1 mL deionized water was added. The absorbance was read at 550 nm vs. water blank.
H10 and H50 were calculated by graphing Percent Total Hemolysis vs. Test Sample Concentration. The Percent Total Henolysis=(average o.d of test sample)/(average o.d. of total hemolysis sample)×100

[3] = test system: U937; assay: In vitro growth inhibition (GI50), cell growth assay; format: cell-based, human; details: U937 tumor cell line, 3 days
Method: After 3 days of incubation, cell growth was determined.
To determine the Growth Inhibition in the suspension cell lines, cell numbers were directly counted instead of using the SRB assay which determines the total cell protein. One day prior to the drug treatment, 40,000 cells per well were seeded into 24-well plates in a volume of 0.5 mL. Stock solutions were diluted with complete medium to twice the desired final concentrations, and then 0.5 mL aliquots of each dilution were added to the designated wells. After 3 days incubation, cell growth was determined by counting cell number using a coulter counter (Z-M, coulter). Cell counts were-also taken at time 0 and subtracted from the test results to give net growth.

[4] = test system: A549; assay: In vitro growth inhibition (GI50), SRB assay; format: cell-based, human; details: A549 tumor cell line, 3 days
Description: (§1) The following cell lines were selected from the cell bank for screening and GI50 studies: MCF-7: human breast tumor, MCF-7/ADR: MCF-7 adriamycin resistant subline, HT-29: human colon carcinoma, A-549: human non-small cell lung cancer, NIH-3T3: mouse Swiss embryo fibroblast and WI-38: human lung fibroblast, SKMEL-28: human melanoma, Lewis Lung: mouse lung carcinoma, DU-145: prostate carcinoma, B16F10: mouse melanoma, L1210: murine lymphocytic leukemia, P-388: murine leukemia, U-937: human histolytic lymphoma. Except HT-29, WI-38, NIH-3T3 and Lewis Lung which were obtained from the American Type Culture Collection (Rockville, Md.) all the other cell lines were obtained from National Cancer Institute—Frederick Research Facility (Frederick, Md.). All the cell lines were grown in RPMI-1640 medium containing 10% fetal bovine serum (FBS) except WI-38 and DU-145 which were grown in EMEM+10% FBS at 37° C., 5% CO2 and 100% humidity and NIH-3T3, Lewis Lung, B16F10 and L1210 which were grown in DMEM containing 10% FBS (10% HS for L1210). All the adherent cell lines were detached from the culture flasks by addition of 2-3 ml of 0.05% trypsin-EDTA. Thereafter, trypsin was inactivated by addition of 10 mL of 10% serum-containing RPMI-1640 medium. Cells were separated into a single-cell suspension by gentle pipetting action. Depending on the cell type, 3,6000 to 10,000 cells were plated onto 96-well plates a day prior to the drug treatment, in a volume of 100 μl per well.
(§2) The test compounds were made in-house and the compounds were dissolved PBS or saline at a stock concentration of approximately 20 mM, which is 400 times the desired final maximum test concentration. The stock solutions were then diluted with complete medium to twice the desired final concentration. 100 μl aliquots of each dilution was then added to the designated wells. After 3 days of incubation, cell growth was determined.
(§3) The SRB assay was performed as described by Monks, A., Scudiero, D., Skehan, P., Shoemaker, R., Paull, K., Vistica, D., Hose, C., Langley, J., Cronise, P., and Vaigro-Wolff, A. Feasibility of a high-flux anticancer drug screen using a diverse panel of cultured human tumo-r cell lines. J Natl Cancer Inst, 83: 757-766, 1991 with minor modifications. Following drug treatment, cells were fixed with 50 μl of cold 50% (wt/vol) trichloroacetic acid (TCA) for 60 minutes at 4° C. The supernatant was discarded, and the plates were washed six times with deionized water and then air dried. The precipitate was stained with 100 μl SRB solution (0.4% wt/vol in 1% acetic acid) for 10 minutes at room temperature, and free SRB was removed by washing three times with 1% acetic acid, and the plates were then air dried. Bound SRB was solubilized with Tris buffer (10 mM), and the ODs were read using an automated plate reader (Bio-Rad, Model 3550-UV) at 490 nm. Background values were subtracted from the test data, and the data was calculated as a % of control. […] Percentage growth was calculated as described by, Peters, A. C., Ahmad, I., Janoff, A. S., Pushkareva, M. Y., and Mayhew, E. Growth Inhibitory effects of liposome-associated 1-o-octadecyl-2-o-methyl-sn-glycero-3-phosphocholine. Lipids, 32:1045-1054, 1997. The raw optical density data Was imported into an Excel spreadsheet to determine dose responses. […] By varying drug concentration,-dose response curves were generated and the GI-50 values were calculated. The GI50 values for each experiment were calculated using data obtained from three duplicate wells on two separate plates.
(§4) For growth inhibitory evaluation, we used five human tumor cell lines (U937; HT29; A549; MCF7; MCF7/ADR) and two normal fibroblast cell lines (NIH-3T3, murine; WI-38, human).

[5] = test system: HT29; assay: In vitro growth inhibition (GI50), SRB assay; format: cell-based, human; details: HT29 tumor cell line, 3 days
Description: as §1, §2, §3, §4

[6] = test system: MCF7/ADR; assay: In vitro growth inhibition (GI50), SRB assay; format: cell-based, human; details: MCF7/ADR tumor cell line, 3 days
Description: as §1, §2, §3, §4

[7] = test system: MCF7; assay: In vitro growth inhibition (GI50), SRB assay; format: cell-based, human; details: MCF7 tumor cell line, 3 days
Description: as §1, §2, §3, §4

[8] = test system: NIH-3T3; assay: In vitro growth inhibition (GI50), SRB assay, normal fibroblast; format: cell-based, mouse; details: NIH-3T3 normal murine fibroblast cell line, 3 days
Description: as §1, with “All the adherent cell lines were detached from the culture flasks by addition of 2-3 ml of 0.05% trypsin-EDTA. Thereafter, trypsin was inactivated by addition of 10 mL of 10% serum-containing RPMI-1640 medium. Cells were separated into a single-cell suspension by gentle pipetting action. Depending on the cell type, 3,6000 to 10,000 cells were plated onto 96-well plates a day prior to the drug treatment, in a volume of 100 μl per well.” left out
The test compounds were made in-house and the compounds were dissolved PBS or saline at a stock concentration of approximately 20 mM, which is 400 times the desired final maximum test concentration. […] After 3 days of incubation, cell growth was determined.
The SRB assay was performed as described by Monks, A., Scudiero, D., Skehan, P., Shoemaker, R., Paull, K., Vistica, D., Hose, C., Langley, J., Cronise, P., and Vaigro-Wolff, A. Feasibility of a high-flux anticancer drug screen using a diverse panel of cultured human tumo-r cell lines. […] Bound SRB was solubilized with Tris buffer (10 mM), and the ODs were read using an automated plate reader (Bio-Rad, Model 3550-UV) at 490 nm. Background values were subtracted from the test data, and the data was calculated as a % of control. […] Percentage growth was calculated as described by, Peters, A. C., Ahmad, I., Janoff, A. S., Pushkareva, M. Y., and Mayhew, E. Growth Inhibitory effects of liposome-associated 1-o-octadecyl-2-o-methyl-sn-glycero-3-phosphocholine. […]

[9] = test system: WI38; details: WI38 normal human fibroblast cell line, 3 days
Description: as §1, §2, §3, §4

[10] = test system: DEVDase activity (Caspase 3) in Jurkat T cells; assay: DEVDase activity in Jurkat T cells; format: cell-based; details: Jurkat T cells, 6 hours
Method: Suspension cells were seeded at density 3.2×10^5 cells per mL in RPMI-1640 medium (Bio-Whittaker) supplemented with 10% heat inactivated FBS (Bio-Whittaker). Cells were pre-incubated overnight prior to treatment with the ether lipid compounds of the invention. At treatment time cell density was 5×10^5 cells per mL. Cells were incubated with the ether lipid compounds of the invention for various periods of time, usually 6 hours. Cells were collected, washed with 1×DPBS and resuspended in 110 μl of Buffer A (10 mM BEPES-KOH, pH 7.4, 2 mM EDTA, 0.1% CHAPS, 5 mM DTT, 1:100 dilution of protease inhibitors cocktail (Sigma)-DTT and protease inhibitors should be added just before use). After 10 min incubation on ice in order to lyse cells, samples were frozen on dry ice/ethanol and kept at −20° C. until analysis.
At the time of analysis of DEVDase activity frozen pellets were kept on ice until thawed and after vigorous vortexing samples were centrifuged at 14,000 rpm for 6 min.; Supernatant was transferred into another tube and 2 μl, in triplicates, were used for protein measurement using Bradford reagent (Bio-Rad).
Measurement of DEVDase activity was carried out in 100 μl volume, where 10 μg of protein was delivered in 50 μl of Buffer A and 40 μM of substrate Ac-DEVD-AMC was also delivered in 50 μl of Buffer A. All measurements were done in triplicates. Reaction was carried out for 1 hour and generation of fluorescent product of reaction (aminomethylcoumarin) was measured by reading fluorescence at 1em 460 nm (1ex 360 nm). Changes in DEVDase activity were calculated after subtraction of background fluorescence of substrate incubated without proteins, and were expressed as percent of control (DEVDase activity in untreated cells). Average of DEVDase activity, calculated from few independent experiments, was used to calculate percent of L-ether lipid-induced DEVDase activity.

[11] = test system: platelets in dog whole blood
Method: as §5, §6, §7

| Relative Platelet Aggregation (Ohms) ([1]; 25 μM) | Relative Platelet Aggregation (Ohms) ([1]; 100 μM) | Relative Platelet Aggregation (Ohms) ([1]; 400 μM) | Relative Platelet Aggregation (Ohms) ([1]; 800 μM) | SMILES | platelet aggregation response (in words) [1] | H50 [2] | GI50 [3] [µM] | GI50 [4] [µM] | GI50 [5] | GI50 [6] [µM] | GI50 [7] [µM] | GI50 [8] [µM] | GI50 [9] [µM] | % L-ET18OCH3 (DEVDase, 6 hrs) ([10]; 10 μM ether lipid) [%] | % L-ET18OCH3 (DEVDase, 6 hrs) ([10]; 20 μM ether lipid) [%] | % L-ET18OCH3 (DEVDase, 6 hrs) ([10]; 30 μM ether lipid) [%] | Platelet aggregation [11] | platelet aggregation response (in words) [11] |
| --- | --- | --- | --- | --- | --- | --- | --- | --- | --- | --- | --- | --- | --- | --- | --- | --- | --- | --- |
| 8 | 16 | 10 | 0 | CCCCCCCCCCCCCCCCCCOC[C@@H](N)COP(=O)([O-])OCC[N+](C)(C)C [9(R)] | clear platelet aggregation response; also recorded: elicited a platelet aggregation response | – | – | – | – | – | – | – | – | – | – | – | – | – |
| – | – | – | – | CCCCCCCCCCCCCCCCCCOCC(COP(=O)([O-])OCC[N+](C)(C)C)OC [L-ET18OCH3, 1-O-octadecyl-2-O-methyl-glycerophosphocholine, reference compound] | – | 2000, >2000 μM | 1 to 1.5 | 6.5 to 9.1 | 5.5 µM and 6 µM | ≥ 25.7 | 9.7 to 18.6 | 46.6 | 10 to 12.8 | 100 ± 8.8 | 100 ± 10.4 | 100 ± 9.3 | +++ | elicits a platelet-aggregation response |
